Measurements: BindingDB's records for doi:10.1016/j.bmc.2004.12.045 (Cnrs, 2005)
Where a name gives a salt, the structure may show the parent alone.

The molecules below were run against Glycogen synthase kinase-3 beta (Sus scrofa) (assay: Kinase activities were assayed in buffers containing substrate, enzyme, and inhibitor at 30 °C in the presence of 15 uM ATP/ [gamma-32P] ATP. 32P incorporation was measured with a scintillation counter. The IC50 is the inhibitor concentration, which inhibits 50% of kinase activity that catalyzes the transfer of the terminal phosphate from 32P l). Conditions: pH 7.5.

| Compound | IC50 |
| --- | --- |
| Cc1c2c(c(CNC(=O)CN(C)C)c3c4ccccc4n(COCC[Si](C)(C)C)c13)C(=O)N(C)C2=O [N-[(2,4-dimethyl-1,3-dioxo-5-{[2-(trimethylsilyl)ethoxy]methyl}-1H,2H,3H,5H-pyrrolo[3,4-b]carbazol-10-yl)methyl]-2-(dimethylamino)acetamide] | > 10 µM |
| Cc1c2c(c(C#N)c3c4cc(Cl)ccc4n(COCC[Si](C)(C)C)c13)C(=O)N(C)C2=O [8-chloro-2,4-dimethyl-1,3-dioxo-5-{[2-(trimethylsilyl)ethoxy]methyl}-1H,2H,3H,5H-pyrrolo[3,4-b]carbazole-10-carbonitrile] | > 10 µM |
| NCc1nc2c(c3c1[nH]c1ccccc13)CNC2=O [8-(aminomethyl)-4,7,10-triazatetracyclo[7.7.0.0^{2,6}.0^{11,16}]hexadeca-1(9),2(6),7,11(16),12,14-hexaen-5-one hydrochloride] | 5.5 µM |
| Cc1c2c(c(CN)c3c4ccccc4n(COCC[Si](C)(C)C)c13)C(=O)N(Cc1ccccc1)C2=O [10-(aminomethyl)-2-benzyl-4-methyl-5-{[2-(trimethylsilyl)ethoxy]methyl}-1H,2H,3H,5H-pyrrolo[3,4-b]carbazole-1,3-dione] | > 10 µM |
| CN(C)CC(=O)NCc1nc2c(c3c1[nH]c1ccccc13)CNC2=O [2-(dimethylamino)-N-({5-oxo-4,7,10-triazatetracyclo[7.7.0.0^{2,6}.0^{11,16}]hexadeca-1(9),2(6),7,11(16),12,14-hexaen-8-yl}methyl)acetamide] | 8 µM |
| Cc1nc2c(c3c4ccccc4n(CCN(C)C)c13)CNC2=O [10-[2-(dimethylamino)ethyl]-8-methyl-4,7,10-triazatetracyclo[7.7.0.0^{2,6}.0^{11,16}]hexadeca-1(9),2(6),7,11(16),12,14-hexaen-5-one] | 7 µM |
| Cc1c2c(c(CNC(=O)CCN(C)C)c3c4ccccc4n(COCC[Si](C)(C)C)c13)C(=O)N(Cc1ccccc1)C2=O [N-[(2-benzyl-4-methyl-1,3-dioxo-5-{[2-(trimethylsilyl)ethoxy]methyl}-1H,2H,3H,5H-pyrrolo[3,4-b]carbazol-10-yl)methyl]-3-(dimethylamino)propanamide] | > 10 µM |
| Cc1c2c(c(CNC(=O)CN(C)C)c3c1[nH]c1ccccc13)C(=O)N(C)C2=O [{[({2,4-dimethyl-1,3-dioxo-1H,2H,3H,5H-pyrrolo[3,4-b]carbazol-10-yl}methyl)carbamoyl]methyl}dimethylazanium chloride] | > 10 µM |
| Cc1nc2c(c3c1[nH]c1ccccc13)CNC2=O [5-Methyl-1,2-dihydro-6H-2,4,6-triaza-cyclopenta[c]fluoren-3-one] | > 10 µM |
| Cc1nc2c(c3c1[nH]c1ccccc13)CN(CCN(C)C)C2=O [2-(2-Dimethylaminoethyl)-5-methyl-1,2-di-hydro-6H-2,4,6-triaza-cyclopenta[c]fluoren-3-one] | > 10 µM |
| Cc1c2c(c(CN)c3c4ccccc4n(COCC[Si](C)(C)C)c13)C(=O)N(C)C2=O [10-(aminomethyl)-2,4-dimethyl-5-{[2-(trimethylsilyl)ethoxy]methyl}-1H,2H,3H,5H-pyrrolo[3,4-b]carbazole-1,3-dione] | > 10 µM |
| Cc1cc(C)c(S(=O)(=O)NCc2nc3c(c4c2[nH]c2ccccc24)CNC3=O)c(C)c1 [2,4,6-Trimethyl-N-(3-oxo-1,2,3,6-tetrahydro-2,4,6-triaza-cyclopenta[c]fluoren-5-ylmethyl)-benzene-sulfonamide] | 1.5 µM |
| O=C1c2nc(-c3ccccc3)c3[nH]c4ccccc4c3c2CN1Cc1ccccc1 [2-Benzyl-5-phenyl-1,2-dihydro-6H-2,4,6-triazacyclopenta[c]fluoren-3-one] | > 10 µM |
| Cc1cc2c(c3c4ccccc4n(COCC[Si](C)(C)C)c13)C(=O)N(CCN(C)C)C2=O [2-[2-(dimethylamino)ethyl]-5-methyl-6-{[2-(trimethylsilyl)ethoxy]methyl}pyrrolo[3,4-c]carbazole-1,3(2H,6H)-dione] | > 10 µM |
| Cc1c2c(c(C#N)c3c4ccccc4n(COCC[Si](C)(C)C)c13)C(=O)N(C)C2=O [2,4-dimethyl-1,3-dioxo-5-{[2-(trimethylsilyl)ethoxy]methyl}-1H,2H,3H,5H-pyrrolo[3,4-b]carbazole-10-carbonitrile] | > 10 µM |
| Cc1c2c(c(CNC(=O)CCN(C)C)c3c4ccccc4n(COCC[Si](C)(C)C)c13)C(=O)N(C)C2=O [N-[(2,4-dimethyl-1,3-dioxo-5-{[2-(trimethylsilyl)ethoxy]methyl}-1H,2H,3H,5H-pyrrolo[3,4-b]carbazol-10-yl)methyl]-3-(dimethylamino)propanamide] | > 10 µM |
| Cc1c2c(c(CNC(=O)CN(C)C)c3c4ccccc4n(COCC[Si](C)(C)C)c13)C(=O)N(Cc1ccccc1)C2=O [N-[(2-benzyl-4-methyl-1,3-dioxo-5-{[2-(trimethylsilyl)ethoxy]methyl}-1H,2H,3H,5H-pyrrolo[3,4-b]carbazol-10-yl)methyl]-2-(dimethylamino)acetamide] | > 10 µM |
| Cc1cc2c(c3c1[nH]c1ccccc13)CNC2=O [8-methyl-4,10-diazatetracyclo[7.7.0.0^{2,6}.0^{11,16}]hexadeca-1(9),2(6),7,11(16),12,14-hexaen-5-one] | > 10 µM |
| Cc1cc2c(c3c4ccccc4n(COCC[Si](C)(C)C)c13)C(=N)N(CCN(C)C)C2=O [4-[2-(dimethylamino)ethyl]-3-imino-8-methyl-10-{[2-(trimethylsilyl)ethoxy]methyl}-4,10-diazatetracyclo[7.7.0.0^{2,6}.0^{11,16}]hexadeca-1(9),2(6),7,11(16),12,14-hexaen-5-one] | > 10 µM |
| Cc1cc2c(c3c4ccccc4n(COCC[Si](C)(C)C)c13)CNC2=O [5-Methyl-6-(2-trimethylsilanyl-ethoxymethyl)-1,2-dihydro-6H-pyrrolo[3,4-c]carbazol-3-one] | > 10 µM |
| Cc1c2c(c(CNC(=O)CN(C)C)c3c1[nH]c1ccccc13)C(=O)N(Cc1ccccc1)C2=O [{[({2-benzyl-4-methyl-1,3-dioxo-1H,2H,3H,5H-pyrrolo[3,4-b]carbazol-10-yl}methyl)carbamoyl]methyl}dimethylazanium chloride] | > 10 µM |
